“Also recorded” adds a separate entry of the source. Ends that are not written are not given here.
Tests used:
[1] = test system: inactivated influenza A virus; assay type: binding; conditions: flow cell 4 vs flow cell 2
Dengue virus 2 = assay: Focus formation assay; assay type: cell-based
Method: The inhibition of Dengue virus 2 by DET4 peptides and DET4 coupled to DNA nanostructures was investigated by focus formation assay. Target cells were seeded in a 96-well plate the day before infection. In a separate 96 well plate 200-500 virus particles per well were incubated with or without DET4 monomers and DET4-coupled DNA Trimers in different concentrations for 2 hours followed by transfer of the mixtures to confluent target cell monolayers and incubation for 1 h at 37° C.
Subsequently fresh DMEM/2% (v/v) FBS containing 1.6% (w/v) Avicell was added to each well, covering the surface with microcrystalline cellulose to avoid spreading of the virus in the medium and enhancing formation of virus foci. Infected cells were incubated for 4 days followed by washing with PBS and fixing with 70% ethanol. Cells were rinsed with phosphate buffered saline, pH 7.4 (PBS) prior to immunostaining. Virus foci were detected using an Anti-flavivirus mouse monoclonal antibody that recognizes Dengue viruses, followed by horseradish peroxidase-conjugated goat anti-mouse immunoglobulin, and developed using TMB chromogen substrate. After washing, Virus foci were visible in the wells as blue spots that were counted for quantitative analysis. Counting results are presented in the table 1.

Dengue virus = conditions: read-out: virus entry into host cells inhibited by 50% (IC50); cited from earlier work
[2] = test system: influenza A infection of MDCKII cells; assay: Infection inhibition assay using MDCKII cells (cytopathic effect); assay type: cell-based
Method: Also preferred is an infection inhibition assay. The infection inhibition assay using MDCKII cells and the MTT Test (or MTS). Inhibitor (peptide-conjugates DNA nanostructure) and virus are pre-incubated for 10-30 min at room temperature and added to cells (MDCKII for influenza, Vero E6 for Dengue). Viral infection of host cells can be tested after 24-72 h by either crystal violet staining or MTT/MTS reagents. Infected cells will slow down their metabolism and/or die after a certain time.
The inhibition of the influence virus by different DNA scaffolds together with PeB is shown. It can be seen from SPR data in FIG. 8 that the binding of virus particles is increased when more peptides are presented on the DNA scaffold. […] No binding to the virus particles is seen when they are not carrying any peptides.
FIG. 14A: Infection inhibition assay using MDCKII cells. This is a microscopic image of MDCKII cells. The cells form a healthy monolayer. No cytopathic effect (CPE) is seen.
FIG. 14b: Infection inhibition assay using MDCKII cells. This is a microscopic image of MDCKII cells infected with influenza viruses. The cells begin to die. A cytopathic effect (CPE) (rounding up and small aggregations of the cells) is clearly seen.

[3] = molecular target: influenza A hemagglutinin (Influenza A virus, UniProt P03437); conditions: read-out: dissociation constant KD with hemagglutinin; cited from earlier work
influenza A viruses = assay: Hemagglutination inhibition assay (HAI); assay type: cell-based; conditions: dilution series, constant virus and blood, FIGS. 11-13

## DNA 4-arm structure with 3×PeB: mimics the N structure with a fourth arm bearing biotin, carrying 3×PeB (ARDFYDYDVFYYAMD; also: stated molecule is a DNA 4-arm structure with biotin arm carrying 3×PeB)
[1]
  dissociation time compared to the simple DNA double-strand (SPR): slower dissociation time

## AGVKDGKLDF [DET4]
Dengue virus 2
  inhibition of Dengue virus infection of target cells, result in words: not able to inhibit viral infection
Dengue virus 2; 10 μM
  virus foci counted: 53
Dengue virus 2; 50 μM
  virus foci counted: 47
Dengue virus 2; 100 μM
  virus foci counted: 46
Dengue virus
  IC50: 35 µM

## ARDFYDYDVFYYAMD [PeB, reference compound]
[2]; 500 μM
  inhibition of infection / cytopathic effect: more significant cytopathic effect; also recorded: not enough to inhibit the infection
[3]
  Kd: 56.8 µM

B1: DNA-PeB3: three-branched DNA scaffold of three DNA strands (SEQ ID NOs 2-4) with three PeB peptide moieties, one per strand end (conjugate)
DNA 1: ACTATCTTTGGTCTATTATCTTGAGTCATC
DNA 2: TAGTTGTGTGTGTGTTAGACCAAAGATAGT
DNA 3: GATGACTCAAGATAAACACACACACAACTA
modifications: DNA, backbone and methylation of C not given here; PeB peptide conjugated at one end of each strand
Influenza A viruses
  inhibition of virus binding to RBCs (HAI), result in words: able to inhibit binding of the influenza A virus to red blood cells
Influenza A viruses; listed as N
  inhibition of virus binding to RBCs (HAI), result in words: concentration-dependent increase in binding
Influenza A viruses; listed as N_3×PeB
  inhibition of virus binding to RBCs (HAI), result in words: RBCs forming a dot on the bottom of the well can be seen for high concentrations; also recorded: hinder the viruses from binding to RBCs
[2]; 11 μM, listed as N with 3 peptides
  inhibition of infection / cytopathic effect: clear inhibition
[2]; 11 μM, listed as Trimer “N” with 3×PeB
  inhibition of infection / cytopathic effect: Virus infection was inhibited

From US20210145972A1, “NAN[…] A NUCLEIC ACID SCAFFOLD AND VIRUS-BINDING PEPTIDE MOIETIES” (FRAUNHOFER-GESELLSCHAFT ZUR FÖRDERUNG DER ANGEWANDTEN …, priority 2017, published 2021)
